# Test results from patent US8344180B2, “Hydrazine amide derivative” (Shionogi & Co., Ltd., priority 2006, dated 2013).
# Molecular target: T1, human NPY Y5 receptor (Homo sapiens, UniProt Q15761)
# T1 construct: expressed in transfected cells; membranes used
# T1 sequence (Q15761 1-445): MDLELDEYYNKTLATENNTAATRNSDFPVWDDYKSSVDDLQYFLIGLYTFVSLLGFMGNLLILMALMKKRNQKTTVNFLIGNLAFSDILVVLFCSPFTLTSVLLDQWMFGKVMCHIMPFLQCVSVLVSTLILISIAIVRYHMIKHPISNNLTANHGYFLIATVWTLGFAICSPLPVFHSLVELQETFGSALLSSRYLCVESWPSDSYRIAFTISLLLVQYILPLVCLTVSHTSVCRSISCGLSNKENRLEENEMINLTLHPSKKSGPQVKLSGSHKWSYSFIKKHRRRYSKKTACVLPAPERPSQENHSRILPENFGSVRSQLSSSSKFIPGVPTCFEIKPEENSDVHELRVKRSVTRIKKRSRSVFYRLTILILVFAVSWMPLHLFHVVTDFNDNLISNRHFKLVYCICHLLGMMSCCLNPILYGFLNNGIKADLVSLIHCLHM
# Test: Affinity for NPY Y5 receptor ([125I] peptide YY binding to CHO cell membranes)
# Conditions: membranes from CHO cells expressing NPY Y5 receptor; [125I] peptide YY 60 pM; 25° C., 2 hours; read-out: 50% inhibitory concentration of the test-compound against the specific peptide YY binding (IC50 value)
# From the text: Experiment 1: Affinity for NPY Y5 Receptor
# cDNA sequence encoding a human NPY Y5 receptor (WO96/16542) was cloned in a vector pME18S (Takebe et al. Mol. Cell. Biol. 8, 8957). The obtained expression vector was transfected into CHO cells as a host by using Lipofect AMINE reagent (Trademark, Gibco BRL Co., Ltd.) according to the instruction manual. The cells that stably express NPY Y5 receptor were obtained.
# The membranes prepared from the CHO cells expressing NPY Y5 receptor, the compound of the present invention and 30,000 cpm [^125I] peptide YY (60 pM of final concentration: Amersham) were incubated in the assay buffer (20 mM HEPES-Hanks buffer containing 0.1% bovine serum albumin, pH 7.4) at 25° C. for 2 hours, and then the membrane was filtered from the mixture through a glassfilter (GF/C) presoaked with 1% polyethyleneimine. After washing with 50 mM Tris-HCl buffer (pH 7.4), radioactivity retained on the filters was quantified with a gamma counter. Nonspecific binding was defined as the amount of radioactivity bound to the membranes after incubation in the presence of 200 nM of peptide YY. The 50% inhibitory concentration of the test-compound against the specific peptide YY binding (IC50 value) was calculated (Inui, A. et al. Endocrinology 131, 2090-2096 (1992)).
row,IC50 [nM],Compound
1,2.3,CC(C)(C)S(=O)(=O)N[C@H]1CC[C@H](C(=O)NNc2ccc(Cl)c(Cl)c2)CC1 [Example I-4]
2,1.1,CC(C)S(=O)(=O)N[C@H]1CC[C@H](C(=O)NNc2ccc(Cl)c(Cl)c2)CC1 [Example I-8]
3,0.88,CC(C)(C)S(=O)(=O)N[C@H]1CC[C@H](C(=O)NNc2cccc3ccccc23)CC1 [Example I-17]
4,1.12,CC(C)(C)S(=O)(=O)N[C@H]1CC[C@H](C(=O)NNc2cccc(-c3ccccc3)c2)CC1 [Example I-23]
